In brackets after ≈: the same amount, converted by molar mass. Several values for one entry are separate records, joined by “and”; a condition that tells them apart may be missing. Equal entries are not always repeated. Entries after “also recorded” stand apart in the source; their conditions may differ. Where two headings read alike, the source gives them in different places.
Legend:
E. coli NDM-1 [1] = assay: MIC broth microdilution checkerboard; type: cell-based, Escherichia coli
Description: (§1) Briefly, two-fold dilutions of each meropenem/BP or meropenem/TG from 0.015 to 16 μg/mL and 1 to 64 μg/mL respectively were made in cation adjusted Mueller-Hinton Broth (CAMHB) in a 96-well microtitre plate using the checkerboard method (King et al). A 0.5 McFarland-standardized bacterial inoculum was added to make a total volume of 100 μl in each microtitre well. The initial inoculum density was determined by plating out MHA plates for MBC testing. The plates were then incubated for 18-22 h at 37° C. under aerobic conditions. The MIC was determined as the lowest concentration at which there was no visible growth. Control wells included the amount of solvent used in dissolving drug candidates.
(§2) To investigate the potential activity of BP1 and TG1 as MBLs inhibitors well characterized carbapenem-resistant bacteria expressing known class B carbapenemases were used. MICs using the broth micro-dilution method was conducted according to CLSI guidelines (Clinical and Laboratory Standards Institute. Performance Standards for Antimicrobial Susceptibility Testing: Twenty-Fourth Informational Supplement M100-S24. CLSI, Wayne, PA, USA, 2014) using cation adjusted Mueller-Hinton broth for meropenem, alone (See table 4) and in combination with the metal chelating agents BP1 and TG1 at variable concentrations (two-fold dilutions from 1 to 64 μg/mL). Escherichia coli ATCC 25922 was used as the control.

E. coli NDM-1 [2] = assay: Time-kill assay; type: cell-based; conditions: BP1 in combination with meropenem
Description: (§3) Time-kill studies were performed according to previously published methods, including those described by CLSI document M26-A. E. coli NDM-1, K. pneumoniae IMP-8 and K. pneumoniae NDM were the strains selected for this assay. Briefly, freshly prepared colonies were re-suspended in 10 mL CAMHB and incubated in a shaking incubator (37° C., 180 rpm) for 1 to 2 h. Cultures were then diluted to a 0.5 McFarland standard (approximately 10^8 CFU/mL) and further diluted 1:20 in CAMHB so that the starting inoculum was approximately 5×10^6 CFU/mL. […] A growth control with no antibiotic was also included. The starting inoculum was determined from the growth control tube immediately after dilution and was recorded as the count at time zero. After addition of antibiotics, the starting inoculum was approximately 1×10^6 to 5×10^6 CFU/mL. Tubes were incubated in a shaking incubator at 37° C., 180 rpm, and viability counts were performed at 1, 2, 4, 6, 8 and 24 h by removing 100 μL of the culture, diluting as appropriate, and plating 100 μL on MHA. MHA plates were incubated at 37° C. for at least 18 h. Colonies were counted, and the results were recorded as the number of CFU/mL. A ≥3−log10 decrease in the number of CFU/mL was considered bactericidal.

K. pneumoniae IMP-8 [3] = assay: Time-kill assay; type: cell-based; conditions: BP1 in combination with meropenem
Description: as §3

HepG2 cells [4] = assay: Cell viability (MTT) assay; type: cell-based, Human; conditions: for IC50: Homo sapiens, HepG2, 24 h; for HepG2 cell viability, effect in words: relative to control
Description: Human hepatoma (HepG2) cells were cultured in Dulbecco minimum essential medium (Lonza Biowhittaker, Switzerland) supplemented with 1% pen/strep/fungizone, 1% L-glutamine and 10% fetal bovine serum. The cells were maintained under the atmosphere of 5% CO2 at 37° C. Once 80% confluence had been reached, cells were enzymatically detached (trypsin) and utilized for the cell viability assay. The effect of MPR-SMN-05 on cell viability was determined using the 3-(4,5-Dimethyl-2-thiazolyl)-2,5-diphenyl-2H-tetrazolium bromide (MTT) assay according to previously reported studies by Mosmann (Mosmann T. Rapid colorimetric assay for cellular growth and survival: application to proliferation and cytotoxicity assays. Journal of immunological methods 1983; 65: 55-63). Approximately 15, 000 cells were seeded in a 96-well microtiter plate and allowed to adhere overnight. The cells were subsequently exposed to a range of 0 to 250 mg/L MPR-SMN-05 (experiments were done in triplicate). After incubation with MPR-SMN-05 for 24 h, cells were washed twice with 0.1 M phosphate buffer saline (PBS) and incubated with 20 μl MTT salt solution (5 mg/ml in 0.1 M PBS) and 100 μl complete culture medium (CCM) (37° C., 4 h). The MTT salt solution was then discarded and […] of DMSO was added to each well and incubated (37° C., 1 h) to dissolve the formazan crystals. The optical density was measured at 570/690 nm employing a spectrophotometer (Bio-Tek uQuant, Winooski, VT). The results were expressed as percentage cell viability vs. log concentration of MPR-SMN-05, from which the half maximal inhibitory concentration (IC50) was determined. Control treatments were represented by an equal amount of DMSO solvent in CCM without the test compound.

HepG2 cells [5] = assay: Lactate dehydrogenase (LDH) cytotoxicity assay; type: cell-based, Human; conditions: for Induction of necrosis / Extracellular lactate dehydrogenase (LDH) level: HepG2 cells; for Induction of necrosis: from LDH; for Extracellular lactate dehydrogenase (LDH) level: relative to control
Description: Human hepatoma (HepG2) cells were cultured in Dulbecco minimum essential medium (Lonza Biowhittaker, Switzerland) supplemented with 1% pen/strep/fungizone, 1% L-glutamine and 10% fetal bovine serum. The cells were maintained under the atmosphere of 5% CO2 at 37° C. Once 80% confluence had been reached, cells were enzymatically detached (trypsin) and utilized for the cell viability assay. The lactate dehydrogenase (LDH) cytotoxicity detection kit (Roche, Mannheim, Germany) was used to measure the cell damage and cytotoxicity in MPR-SMN-05-treated HepG2 cells. Extracellular LDH activity was quantified by incubating […] substrate solution (diaphorase/NAD+; INT/sodium lactate) in a 96 well microtiter plate at room temperature for 30 min. The assay was performed in triplicate. Optical density (OD) was measured following incubation at 500 nm using a spectrophotometric plate reader (Bio-Tek uQuant, Winooski, VT).

E. coli IMP-1 = assay: MIC broth microdilution checkerboard; type: cell-based; conditions: Escherichia coli
Description: as §1, §2

E. cloacae IMP-8 = assay: MIC broth microdilution checkerboard; type: cell-based; conditions: Enterobacter cloacae
Description: as §1, §2

E. cloacae VIM-1 = assay: MIC broth microdilution checkerboard; type: cell-based; conditions: Enterobacter cloacae
Description: as §1, §2

P. rettgeri NDM-1 = assay: MIC broth microdilution checkerboard; type: cell-based; conditions: Providencia rettgeri
Description: as §1, §2

E. coli NDM-4 = assay: MIC broth microdilution checkerboard; type: cell-based; conditions: Escherichia coli
Description: as §1, §2

K. pneumonia IMP-1 = assay: MIC broth microdilution checkerboard; type: cell-based; conditions: Klebsiella pneumoniae
Description: as §1, §2

K. pneumoniae IMP-8 [6] = assay: MIC broth microdilution checkerboard; type: cell-based; conditions: Klebsiella pneumoniae
Description: as §1, §2

K. pneumonia VIM-1 = assay: MIC broth microdilution checkerboard; type: cell-based; conditions: Klebsiella pneumoniae
Description: as §1, §2

[7] = tested on: Klebsiella pneumoniae 449; assay: MIC broth microdilution checkerboard; type: cell-based; conditions: read-out: MIC, Meropenem administered alone
Description: as §1

In the case of `CCN1CCN(CC)CCN(C(CC(=O)NC2C(=O)N3C(C(=O)[O-])=C(C[n+]4ccccc4)CSC23)C(=O)OC)CC1` (stereo not drawn) [BP1], the MIC (E. coli NDM-1 [1]; Escherichia coli, NDM1, E. coli NDM-1, read-out: MIC BP1 alone) is reported as > 64 µg/mL and > 84 µM, the Time-kill kinetics outcome (E. coli NDM-1 [2]) is reported as “bactericidal activity” and the Time-kill kinetics outcome (K. pneumoniae IMP-8 [3]) is reported as “bactericidal activity”. The IC50 (HepG2 cells [4]) was 60 µg/mL (≈ 102 µM), the “HepG2 cell viability, effect in words” value (HepG2 cells [4]) was “dose-dependent decrease in cell viability was observed with a significant decrease occurring at 100 and 200 μg/ml” and the Induction of necrosis (HepG2 cells [5]) was “does not induce necrosis”. The “Extracellular lactate dehydrogenase (LDH) level” value (HepG2 cells [5]) was “significantly reduced at all concentrations”, the “Cytotoxicity, overall statement” value (HepG2 cells [5]; in vitro, cell lines) was “safe at the active concentrations” and the MIC (E. coli IMP-1; IMP1, read-out: MIC BP1 alone) was > 64 µg/mL and > 84 µM. For the same compound, the MIC (E. cloacae IMP-8; IMP8, E. cloacae IMP-8, read-out: MIC BP1 alone) was > 64 µg/mL and > 84 µM, the MIC (E. cloacae VIM-1; VIM1, E. cloacae VIM-1, read-out: MIC BP1 alone) was > 64 µg/mL and > 84 µM and the MIC (P. rettgeri NDM-1; NDM1, P. rettgeri NDM-1, read-out: MIC BP1 alone) was > 64 µg/mL and > 84 µM. The MIC (E. coli NDM-4; NDM4, E. coli NDM-4, read-out: MIC BP1 alone) was > 64 µg/mL and > 84 µM, the MIC (K. pneumonia IMP-1; IMP1, K. pneumonia IMP-1, read-out: MIC BP1 alone) was > 64 µg/mL and > 84 µM and the MIC (K. pneumoniae IMP-8 [6]; IMP8, K. pneumoniae IMP-8, read-out: MIC BP1 alone) was > 64 µg/mL and > 84 µM. For the same compound, the MIC (K. pneumonia VIM-1; VIM1, K. pneumonia VIM-1, read-out: MIC BP1 alone) was > 64 µg/mL and > 84 µM.

With `C/C=C(/C(=O)N[C@@H]1C(=O)N2C(C(=O)O)=C(CSC(=O)c3ccco3)CS[C@H]12)c1csc(NC(=O)CC(C)N2CCN(CC)CCN(CC)CC2)n1` (stereo partly drawn) [BP6] the IC50 (HepG2 cells [4]) was 51.8 µg/mL (≈ 68.2 µM), the “HepG2 cell viability, effect in words” value (HepG2 cells [4]) was “dose dependent increase in the cell viability; also recorded: only significantly altered at 200 μg/ml” and the Induction of necrosis (HepG2 cells [5]) was “does not induce necrosis”. For the same compound, the “Extracellular lactate dehydrogenase (LDH) level” value (HepG2 cells [5]) was “significantly reduced at all concentrations”.

`CCC1=C(C(=O)O)N2C(=O)[C@@H](NC(=O)/C(=N/C)c3csc(NC(=O)CC(C)N4CCN(CC)CCN(CC)CC4)n3)[C@H]2SC1` (stereo partly drawn) [BP10] was tested, and the IC50 (HepG2 cells [4]) was 62 µg/mL (≈ 95.5 µM), the “HepG2 cell viability, effect in words” value (HepG2 cells [4]) was “not significantly altered at 50-100 μg/ml; also recorded: significantly reduced at 200 μg/ml” and the Induction of necrosis (HepG2 cells [5]) was “does not induce necrosis”. The “Extracellular lactate dehydrogenase (LDH) level” value (HepG2 cells [5]) was “remained unaffected at 1 μg/ml; also recorded: significantly reduced at 8-200 μg/ml”.

In the case of `CCN1CCN(CC)CCN(C(CC(=O)Nc2nc(/C(=C/CC(=O)O)C(=O)N[C@@H]3C(=O)N4C(C(=O)O)=CCS[C@H]34)cs2)C(=O)OC)CC1` (stereo partly drawn) [BP14], the IC50 (HepG2 cells [4]) is reported as 42.3 µg/mL (≈ 59.8 µM), the “HepG2 cell viability, effect in words” value (HepG2 cells [4]) is reported as “reduced cell viability at 1 μg/ml and 10-200 μg/ml; also recorded: proliferation occurred at 8 μg/ml” and the Induction of necrosis (HepG2 cells [5]) is reported as “does not induce necrosis”. The “Extracellular lactate dehydrogenase (LDH) level” value (HepG2 cells [5]) was “significantly reduced at 8 μg/ml; also recorded: remained unaffected at 1 μg/ml and 10-200 μg/ml”.

In the case of `C[C@@H](O)[C@H]1C(=O)N2C(C(=O)O)=C(S[C@@H]3CN[C@H](C(=O)N(C)C)C3)[C@H](C)[C@H]12` [Meropenem], the MIC (E. coli NDM-1 [1]; Escherichia coli, NDM1, E. coli NDM-1, read-out: MIC MEM alone) is reported as > 16 µg/mL and > 42 µM, the MIC (E. coli NDM-1 [1]; NDM1, Escherichia coli NDM-1 (Table 6 footnote), read-out: MIC, Meropenem administered alone) is reported as greater than 32 µg/mL and the MIC [7] is reported as greater than 32 µg/mL. For the same compound, the MIC (E. coli IMP-1; IMP1, read-out: MIC MEM alone) was 16 µg/mL and 42 µM, the MIC (E. cloacae IMP-8; IMP8, E. cloacae IMP-8, read-out: MIC MEM alone) was 8 µg/mL and 21 µM and the MIC (E. cloacae VIM-1; VIM1, E. cloacae VIM-1, read-out: MIC MEM alone) was 8 µg/mL and 21 µM. For the same compound, the MIC (P. rettgeri NDM-1; NDM1, P. rettgeri NDM-1, read-out: MIC MEM alone) was > 16 µg/mL and > 42 µM, the MIC (E. coli NDM-4; NDM4, E. coli NDM-4, read-out: MIC MEM alone) was > 16 µg/mL and > 42 µM and the MIC (K. pneumonia IMP-1; IMP1, K. pneumonia IMP-1, read-out: MIC MEM alone) was > 16 µg/mL and > 42 µM. For the same compound, the MIC (K. pneumoniae IMP-8 [6]; IMP8, K. pneumoniae IMP-8, read-out: MIC MEM alone) was 8 µg/mL and 21 µM and the MIC (K. pneumonia VIM-1; VIM1, K. pneumonia VIM-1, read-out: MIC MEM alone) was > 16 µg/mL and > 42 µM.

`O=C(O)CN1CCN(CC(=O)O)CCN(CC(=O)O)CC1` [TG1, 1,4,7-triazacyclononane-1,4,7-triacetic acid] was tested, and the MIC (E. coli NDM-1 [1]; Escherichia coli, NDM1, read-out: MIC TG1 alone) was > 64 µg/mL and > 131 µM, the MIC (E. coli IMP-1; IMP1, read-out: MIC TG1 alone) was > 64 µg/mL and > 131 µM and the MIC (E. cloacae IMP-8; IMP8, read-out: MIC TG1 alone) was > 64 µg/mL and > 131 µM. The MIC (E. cloacae VIM-1; VIM1, read-out: MIC TG1 alone) was > 64 µg/mL and > 131 µM, the MIC (P. rettgeri NDM-1; NDM1, read-out: MIC TG1 alone) was > 64 µg/mL and > 131 µM and the MIC (E. coli NDM-4; NDM4, read-out: MIC TG1 alone) was > 64 µg/mL and > 131 µM. For the same compound, the MIC (K. pneumonia IMP-1; IMP1, read-out: MIC TG1 alone) was > 64 µg/mL and > 131 µM, the MIC (K. pneumoniae IMP-8 [6]; IMP8, read-out: MIC TG1 alone) was > 64 µg/mL and > 131 µM and the MIC (K. pneumonia VIM-1; VIM1, read-out: MIC TG1 alone) was > 64 µg/mL and > 131 µM.
